{
  "source": "patent US20060188879A1",
  "about": "“Crh responsive genes in cns” (Janssen Pharmaceutica N.V., priority 2002, published 2006)",
  "type_in_all_cases": "in vivo, mouse",
  "key": {"[1]": {"test_system": "gene expression profiles in brain areas of CRH overexpressing mice", "experiment": "Microarray gene expression profiles of brain areas (spectral map analysis, SAM)", "description": "(§1) Animal housing and treatment—Male transgenic CRF overexpressing C57BL/6J mice (CRF-OE or TG) and their wild-type littermates (WT) were maintained in an specific pathogen free facility that meets all national and European requirements for animal care. Mice were housed individually 4 weeks before the start of the experiment in a climate-controlled animal colony with a 12 h dark-light cycle (light on 7:00 EST) with free access to food and water. Prior to treatment 3 month old mice were randomized over three groups each comprising 4 wild-type and 4 transgenic animals. […]\nMicroarray hybridization—cRNA was prepared as follows. […] Subsequently arrays were scanned with a HP-Laserscanner and data were analyzed with the Microarray Suite Software (Affymetrix). […] Quality of the experiment was assessed based on the percentages present calls (see table). […]\nBasically this alignment sets the average intensity of one array to the average measured this normalization compensates for array to array variations in hybridization, washing and staining, ultimately allowing a reasonable comparison between arrays. After normalization, data were analyzed using weighted spectral mapping analysis (SMA) (7). […]"}, "[2]": {"test_system": "neurotensin receptor 2 (Ntsr2)", "experiment": "Quantitative RT-PCR / microarray of Ntsr2 mRNA in brain areas of treated WT and CRF-OE mice", "settings": "10 mg/kg, 2 times per day for 5 days, 16 hrs after last treatment", "description": "as §1, with “animals. One group received no treatment, a second group received vehicle injection 5 days, 2 times per day (10% cyclodextran (CD), pH4) and a third group received 10 mg/kg of a CRH-R1 specific antagonist R121919 in 10% CD following the same regime. 16 hrs after last treatment animals were sacrificed for dissection of brain areas and subsequent isolation of RNA.” for “animals.”\nMicroarray hybridization—cRNA was prepared as follows. […] Subsequently arrays were scanned with a HP-Laserscanner and data were analyzed with the Microarray Suite Software (Affymetrix). […] Quality of the experiment was assessed based on the percentages present calls (see table).\nQuantitative RT-PCR—Microarray data were confirmed using real time PCR analysis. […] Quantitative PCR was performed on a ABIPrism 7700 cycler (Applied Biosystems) using a Taqman PCR kit. […]"}, "[3]": {"test_system": "all NTS-sites (Nts1-3)", "experiment": "[125I]NT binding, quantitative autoradiography on brain sections of treated mice", "settings": "subchronic administration", "description": "FIG. 6: [^125I]NT binding (0.1 nM, 30 min, RT) to all NTS-sites determined via quantitative autoradiography on frozen glass-mounted brain tissue sections. Data are represented as the average IOD±SEM of three animals determined on at least three different Bregma sections each.\n(§2) Animal housing and treatment—Male transgenic CRF overexpressing C57BL/6J mice (CRF-OE or TG) and their wild-type littermates (WT) were maintained in an specific pathogen free facility that meets all national and European requirements for animal care. Mice were housed individually 4 weeks before the start of the experiment in a climate-controlled animal colony with a 12 h dark-light cycle (light on 7:00 EST) with free access to food and water. Prior to treatment 3 month old mice were randomized over three groups each comprising 4 wild-type and 4 transgenic animals. One group received no treatment, a second group received vehicle injection 5 days, 2 times per day (10% cyclodextran (CD), pH4) and a third group received 10 mg/kg of a CRH-R1 specific antagonist R121919 in 10% CD following the same regime. 16 hrs after last treatment animals were sacrificed for dissection of brain areas and subsequent isolation of RNA.\nAutoradiography—[^125 I]Neurotensin binding and film radiographs on brains of adult male transgenic C57BU6J mice and their wild-type littermates, was performed as described previously by Moyse et al. (12). […] Incubating additional sections in the presence of 1 μM native neurotensin assessed the non-specific staining. […] On each section structures were delineated interactively and pixel gray levels were measured in the outlined areas. The pixel gray levels were converted to radioactivity per mg of tissue using the co-exposed ^125I-standards and averaged over the measured area. Data were analyzed statistically by a two-way ANOVA and concomitant Bonferroni's Post-hoc test using SPSS 11.0 software."}, "[4]": {"test_system": "neurotensin receptor 1 (Ntsr1)", "experiment": "Quantitative RT-PCR of Ntsr1 mRNA in brain areas of treated WT and CRF-OE mice", "settings": "10 mg/kg, 2 times per day for 5 days, 16 hrs after last treatment, hippocampus", "description": "as §2, with “RNA. […]” for “RNA.”\nQuantitative RT-PCR—Microarray data were confirmed using real time PCR analysis. […] Quantitative PCR was performed on a ABIPrism 7700 cycler (Applied Biosystems) using a Taqman PCR kit. […] A linear regression line calculated from the standard curves allowed the determination of transcript levels in RNA samples from the different treatment groups at each brain area."}},
  "note": "“Also recorded” adds a separate entry of the source.",
  "data": [
    {"smiles": "CCCN(CCC)c1cc(C)nc2c(-c3cnc(N(C)C)cc3C)c(C)nn12", "note": "[R121919]", "values": [
      {"measurement": "Changes in gene expression profile of CRH overexpressing (Tg) versus WT animals", "setting": "[1]; 5 day treatment, all studied brain areas, exemplified by pituitary spectral map, listed as CRH-R1 antagonist", "value": "not affected (or only to a limited degree); also recorded: does not lead to a general ‘normalization’"},
      {"measurement": "Effect on expression levels at the pituitary level", "setting": "[1]; transgenic animals, pituitary", "value": "some effect of the compound is measured"},
      {"measurement": "Upregulation of Ntsr2 mRNA expression in vehicle treated animals (repeated injection stress)", "setting": "[2]", "value": "abolished; also recorded: counteracted"},
      {"measurement": "Downregulation of [125I]NT binding at total NT binding level", "setting": "[3]; CRF-OE mice", "value": "counteracted the downregulation"},
      {"measurement": "[125I]NT binding capacity compared to vehicle treated animals", "setting": "[3]; stratum radiatum bordering CA1-CA2 region, both WT and CRF-OE animals, p=0.057", "value": "upward trend"},
      {"measurement": "Level of [125I]NT binding in treated CRF-OE animals versus untreated animals", "setting": "[3]; stratum radiatum, CRF-OE mice", "value": "equaled the level measured in untreated WT-animals; also recorded: equaled that in untreated animals"},
      {"measurement": "Upregulation of Ntsr1 mRNA expression in vehicle treated animals (repeated injection stress)", "setting": "[4]", "value": "abolished; also recorded: counteracted"}
    ]}
  ]
}
